US5034212A, “Method of imaging using a radioactive glucosamine derivative” (Nihon Medi-Physics Co., Ltd., priority 1989, dated 1991)

Experiments:
hexokinase = experiment: Phosphorylation with hexokinase / inhibition of glucose phosphorylation; format: biochemical
[1] = Body distribution of BGA in mouse; format: in vivo
[2] = Body distribution of ^125 I-ABGA in mouse; format: in vivo, ddY strain male mice; settings: i.v.
[3] = Octanol/phosphate buffer distribution ratio (lipophilic property); format: physicochemical
Procedure: To a mixture of octanol (3 ml) and phosphate buffer (PBS) (3 ml), ^125 I-ABGA as obtained in Example 2 was added, followed by stirring and allowing to stand. The radioactivity of each layer was measured, and the distribution ratio was determined. The results are shown in Table 1, from which it is understood that ^125 I-ABGA is lypophilic.

Swine liver esterase = experiment: Enzymatic deesterification with swine liver esterase, TLC analysis; format: in vitro ADME; settings: pH 7.4, 37° C.; for Proportion of peak component ABGA / Proportion of peak component BGA / Proportion of peak component I^- / Proportion of peak component Others: esterase 100 U
Procedure: Swine liver esterase (100 U) was added to phosphate buffer (pH 7.4), and ^125 I-ABGA (50 kBq) was added thereto, followed by incubation at 37° C. for a certain period of time. The reaction mixture was sampled, and ethanol was added thereto, followed by centrifugation.

[4] = Stability in buffer of pH 5, 7 or 9 at 37° C., TLC analysis; format: physicochemical
Procedure: A solution of ^125 I-ABGA in dimethylsulfoxide was added to a buffer of pH 5, 7 or 9 and incubated at 37° C. for a certain period of time.

brain = experiment: Behavior in mouse: TLC of brain and blood homogenates after tail vein injection; format: in vivo, ddY strain male mice
Procedure: ^125 I-ABGA was injected into ddY strain male mice at the tail vein, and after a certain period of time, the mice were sacrificed. The blood was collected from the heart, and the brain was taken out. The blood and the brain were respectively admixed with 5% trichloroacetic acid (1 ml), homogenized and centrifuged at 3,000 rpm and at 0° C. for 10 minutes. The supernatant was analyzed by thin layer chromatography using a mixture of chloroform and methanol (7:3 by volume) as a developing solvent. The results are shown in FIGS. 1A and 1B of the accompanying drawings. In FIGS. 1A and 1B showing respectively the analytical results on the brain homogenate and the blood homogenate, the solid line, the dotted line and the solid-dot mixed line represent respectively the ones of 5 minutes, 60 minutes and 180 minutes after the administration.

O=C(N[C@H]1C(O)O[C@H](CO)[C@@H](O)[C@@H]1O)c1cccc(I)c1 (stereo partly drawn) [BGA, N-m-iodobenzoyl-D-glucosamine]
Inhibition to the ATP action (hexokinase): antagonistic inhibition to the ATP action | Inhibition to the phosphorylation of glucose (hexokinase): non-antagonistic inhibition to the phosphorylation of glucose | Phosphorylation with hexokinase (hexokinase): not phosphorylated with hexokinase | Passage through the blood-brain barrier ([1]; in vivo): can hardly pass through the blood-brain barrier (BBB) in vivo | Disappearance of radioactivity from brain ([1]; mouse): parallel to the blood clearance | Stomach accumulation as index of deiodization / stability in body ([1]; mouse): low in stomach accumulation as the index of deiodization and thus stable in a body

CC(=O)OC[C@H]1OC(OC(C)=O)[C@H](NC(=O)c2cccc([125I])c2)[C@@H](OC(C)=O)[C@@H]1OC(C)=O (stereo partly drawn) [^125 I-ABGA, ^125 I-labeled N-(m-iodobenzoyl)-1,3,4,6-tetra-O-acetyl-D-glucosamine]
Body distribution, Blood ([2]; 2 min): 5.16 ± 0.97 % dose/g organ | Body distribution, Brain ([2]; 2 min): 0.53 ± 0.14 % dose/g organ | Body distribution, Heart ([2]; 2 min): 4.88 ± 0.97 % dose/g organ | Body distribution, Intestine ([2]; 2 min): 3.94 ± 1.19 % dose/g organ | Body distribution, Kidney ([2]; 2 min): 14.87 ± 2.31 % dose/g organ | Body distribution, Liver ([2]; 2 min): 15.32 ± 4.43 % dose/g organ | Body distribution, Pancreas ([2]; 2 min): 4.54 ± 1.03 % dose/g organ | Body distribution, Stomach ([2]; 2 min): 1.87 ± 0.68 % dose/g organ | Body distribution, Blood ([2]; 5 min): 7.16 ± 0.13 % dose/g organ | Body distribution, Brain ([2]; 5 min): 0.55 ± 0.11 % dose/g organ | Body distribution, Heart ([2]; 5 min): 4.45 ± 0.52 % dose/g organ | Body distribution, Intestine ([2]; 5 min): 4.58 ± 0.60 % dose/g organ | Body distribution, Kidney ([2]; 5 min): 11.39 ± 3.08 % dose/g organ | Body distribution, Liver ([2]; 5 min): 12.85 ± 1.71 % dose/g organ | Body distribution, Pancreas ([2]; 5 min): 4.40 ± 0.28 % dose/g organ | Body distribution, Stomach ([2]; 5 min): 0.59 ± 0.23 % dose/g organ | Body distribution, Blood ([2]; 15 min): 6.64 ± 0.31 % dose/g organ | Body distribution, Brain ([2]; 15 min): 0.47 ± 0.06 % dose/g organ | Body distribution, Heart ([2]; 15 min): 3.35 ± 0.27 % dose/g organ | Body distribution, Intestine ([2]; 15 min): 5.89 ± 0.47 % dose/g organ | Body distribution, Kidney ([2]; 15 min): 7.00 ± 0.49 % dose/g organ | Body distribution, Liver ([2]; 15 min): 7.66 ± 0.86 % dose/g organ | Body distribution, Pancreas ([2]; 15 min): 3.16 ± 0.30 % dose/g organ | Body distribution, Stomach ([2]; 15 min): 1.88 ± 0.52 % dose/g organ | Body distribution, Blood ([2]; 30 min): 4.16 ± 2.42 % dose/g organ | Body distribution, Brain ([2]; 30 min): 0.43 ± 0.02 % dose/g organ | Body distribution, Heart ([2]; 30 min): 2.69 ± 0.20 % dose/g organ | Body distribution, Intestine ([2]; 30 min): 6.26 ± 0.96 % dose/g organ | Body distribution, Kidney ([2]; 30 min): 6.37 ± 3.04 % dose/g organ | Body distribution, Liver ([2]; 30 min): 5.82 ± 0.64 % dose/g organ | Body distribution, Pancreas ([2]; 30 min): 2.59 ± 0.13 % dose/g organ | Body distribution, Stomach ([2]; 30 min): 1.86 ± 0.13 % dose/g organ | Body distribution, Blood ([2]; 60 min): 3.67 ± 0.40 % dose/g organ | Body distribution, Brain ([2]; 60 min): 0.33 ± 0.05 % dose/g organ | Body distribution, Heart ([2]; 60 min): 1.87 ± 0.37 % dose/g organ | Body distribution, Intestine ([2]; 60 min): 6.88 ± 0.53 % dose/g organ | Body distribution, Kidney ([2]; 60 min): 3.81 ± 0.75 % dose/g organ | Body distribution, Liver ([2]; 60 min): 4.94 ± 0.90 % dose/g organ | Body distribution, Pancreas ([2]; 60 min): 2.10 ± 0.34 % dose/g organ | Body distribution, Stomach ([2]; 60 min): 1.74 ± 0.83 % dose/g organ | Body distribution, Blood ([2]; 180 min): 0.91 ± 0.55 % dose/g organ | Body distribution, Brain ([2]; 180 min): 0.19 ± 0.08 % dose/g organ | Body distribution, Heart ([2]; 180 min): 0.75 ± 0.34 % dose/g organ | Body distribution, Intestine ([2]; 180 min): 4.60 ± 2.84 % dose/g organ | Body distribution, Kidney ([2]; 180 min): 1.08 ± 0.67 % dose/g organ | Body distribution, Liver ([2]; 180 min): 2.25 ± 1.44 % dose/g organ | Body distribution, Pancreas ([2]; 180 min): 0.76 ± 0.35 % dose/g organ | Body distribution, Stomach ([2]; 180 min): 1.27 ± 0.80 % dose/g organ | Lipophilic property ([3]; octanol/PBS): lypophilic | Distribution ratio in PBS and octanol ([3]; pH 7.0): 189.0 | Distribution ratio in PBS and octanol ([3]; pH 7.4): 193.8 | Distribution ratio in PBS and octanol ([3]; pH 8.10): 206.5 | Proportion of peak component ABGA (Swine liver esterase; 10 min): 0 | Proportion of peak component BGA (Swine liver esterase; 10 min): 87.3 ± 3.1 | Proportion of peak component I^- (Swine liver esterase; 10 min): 0.9 ± 0.5 | Proportion of peak component Others (Swine liver esterase; 10 min): 10.6 ± 2.9 | Proportion of peak component ABGA (Swine liver esterase; 60 min): 0 | Proportion of peak component BGA (Swine liver esterase; 60 min): 54.5 ± 3.7 | Proportion of peak component I^- (Swine liver esterase; 60 min): 6.5 ± 0.5 | Proportion of peak component Others (Swine liver esterase; 60 min): 33.7 ± 2.4 | Proportion of peak component ABGA (Swine liver esterase; 180 min): 0 | Proportion of peak component BGA (Swine liver esterase; 180 min): 7.2 ± 2.2 | Proportion of peak component I^- (Swine liver esterase; 180 min): 33.4 ± 1.6 | Proportion of peak component Others (Swine liver esterase; 180 min): 42.9 ± 0.4 | Enzymatic deesterification (Swine liver esterase; swine liver esterase): deesterified in a very short time to give N-m-iodobenzoyl-D-glucosamine (BGA) | Stability: peak component ABGA ([4]; 15 min, pH 5, 37° C.): 99.1 | Stability: peak component I^- ([4]; 15 min, pH 5, 37° C.): 0 | Stability: peak component Others ([4]; 15 min, pH 5, 37° C.): 0 | Stability: peak component ABGA ([4]; 15 min, pH 7, 37° C.): 99.9 | Stability: peak component I^- ([4]; 15 min, pH 7, 37° C.): 0 | Stability: peak component Others ([4]; 15 min, pH 7, 37° C.): 0 | Stability: peak component ABGA ([4]; 15 min, pH 9, 37° C.): 53.9 | Stability: peak component I^- ([4]; 15 min, pH 9, 37° C.): 10.2 | Stability: peak component Others ([4]; 15 min, pH 9, 37° C.): 31.5 | Stability: peak component ABGA ([4]; 60 min, pH 5, 37° C.): 98.5 | Stability: peak component I^- ([4]; 60 min, pH 5, 37° C.): 0 | Stability: peak component Others ([4]; 60 min, pH 5, 37° C.): 0 | Stability: peak component ABGA ([4]; 60 min, pH 7, 37° C.): 99.3 | Stability: peak component I^- ([4]; 60 min, pH 7, 37° C.): 0 | Stability: peak component Others ([4]; 60 min, pH 7, 37° C.): 0 | Stability: peak component ABGA ([4]; 60 min, pH 9, 37° C.): 25.5 | Stability: peak component I^- ([4]; 60 min, pH 9, 37° C.): 19.6 | Stability: peak component Others ([4]; 60 min, pH 9, 37° C.): 49.0 | Stability: peak component ABGA ([4]; 180 min, pH 5, 37° C.): 98.4 | Stability: peak component I^- ([4]; 180 min, pH 5, 37° C.): 0 | Stability: peak component Others ([4]; 180 min, pH 5, 37° C.): 0 | Stability: peak component ABGA ([4]; 180 min, pH 7, 37° C.): 97.8 | Stability: peak component I^- ([4]; 180 min, pH 7, 37° C.): 0.9 | Stability: peak component Others ([4]; 180 min, pH 7, 37° C.): 0 | Stability: peak component ABGA ([4]; 180 min, pH 9, 37° C.): 2.2 | Stability: peak component I^- ([4]; 180 min, pH 9, 37° C.): 31.1 | Stability: peak component Others ([4]; 180 min, pH 9, 37° C.): 57.5 | Stability at high pH ([4]; high pH (pH 9), 37° C.): hydrolyzed to BGA with deiodization at high pH | Stability at other pH ([4]; pH 5 and 7, 37° C., up to 3 hours): stable (i.e. neither hydrolyzed nor deiodized) even after 3 hours at other pH

CC(=O)OC[C@H]1OC(OC(C)=O)[C@H](NC(=O)c2cccc(I)c2)[C@@H](OC(C)=O)[C@@H]1OC(C)=O (stereo partly drawn) [ABGA, N-(m-iodobenzoyl)-1,3,4,6-tetra-O-acetyl-D-glucosamine]
TLC peak of ABGA over time (brain; mouse brain, 5 to 180 minutes): decreases with the lapse of time | TLC peaks in brain (brain; mouse brain, 5 minutes after i.v. administration): the peaks of ABGA and BGA appear in brain 5 minutes after the administration | Transfer to brain and deesterification (brain; mouse, i.v.): transferred to brain at the initial stage of administration and thereafter deesterified, whereby it behaves as BGA | Brain/blood ratio with lapse of time [2]: increase of the brain/blood ratio with the lapse of time | Clearance from the blood [2]: rapid clearance from the blood | Retention in the brain [2]: retention in the brain | Uptake in the brain in comparison with BGA [2]: higher uptake in the brain
